Reference: ChEMBL document CHEMBL1201862, “PubChem BioAssay data set” (2004)
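Each compound was tested at five concentrations against cells in 96-well plates for 48 hours. GI50 marks 50% less growth.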 The source made the active and inactive calls. Cut-off read from the data, not from the text of the source: active = GI50 up to about 1.1 µM and inactive = higher.

What was measured:
Test in all cases: DTP human tumour cell line panel, 48 h
786-0 = system: 786-0
A498 = system: A498
A549 = system: A549
EKVX = system: EKVX
HCT-15 = system: HCT-15
HL-60 = system: HL-60
HOP-92 = system: HOP-92
Hs-578T = system: Hs-578T
M14 = system: M14
Malme-3M = system: Malme-3M
NCI/ADR-RES = system: NCI/ADR-RES
OVCAR-4 = system: OVCAR-4
SF-268 = system: SF-268
SF-295 = system: SF-295
SF-539 = system: SF-539
SK-MEL-5 = system: SK-MEL-5
SR = system: SR
U-251 = system: U-251
UO-31 = system: UO-31
SNB-75 = system: SNB-75

Measured: GI50

Cc1cccc2c(=O)c3cccc([C@H](C)C(=O)O)c3oc12
> 100 µM: HCT-15
inactive: 786-0 > 100 µM | A498 > 100 µM | A549 > 100 µM | EKVX > 100 µM | HL-60 > 100 µM | HOP-92 > 100 µM | Hs-578T > 100 µM | M14 > 100 µM | Malme-3M > 100 µM | NCI/ADR-RES > 100 µM | OVCAR-4 > 100 µM | SF-268 > 100 µM | SF-295 > 100 µM | SF-539 > 100 µM | SK-MEL-5 > 100 µM | SR > 100 µM | U-251 > 100 µM | UO-31 > 100 µM

Cc1cc(S(=O)(=O)Nc2nc3ccccc3[nH]2)c(S)cc1Cl
inactive: 786-0 46.5 µM | A498 > 100 µM | A549 45.2 µM | EKVX 53.6 µM | HL-60 35.5 µM | HOP-92 62.5 µM | Hs-578T 70 µM | M14 > 100 µM | NCI/ADR-RES > 100 µM | OVCAR-4 61.4 µM | SF-268 64.7 µM | SF-295 53.1 µM | SF-539 > 100 µM | SK-MEL-5 35.2 µM | SNB-75 > 100 µM | SR 38.2 µM | U-251 24.1 µM | UO-31 > 100 µM
> 100 µM: HCT-15

CC1(C)CC(=O)C(CCC(=O)/C=C/c2ccccc2)C(=O)C1
> 100 µM: HCT-15
inactive: 786-0 > 100 µM | A498 > 100 µM | A549 > 100 µM | EKVX > 100 µM | HL-60 2.51 µM | HOP-92 > 89.3 µM | Hs-578T > 100 µM | M14 > 100 µM | Malme-3M > 100 µM | NCI/ADR-RES > 100 µM | OVCAR-4 > 100 µM | SF-268 > 100 µM | SF-295 > 100 µM | SF-539 > 100 µM | SK-MEL-5 > 100 µM | SNB-75 > 100 µM | U-251 > 100 µM | UO-31 > 61.4 µM

CCOC(=O)COc1ccc(/C=C/C(=O)c2ccc(OC)cc2)cc1
24.4 µM: HCT-15
inactive: 786-0 20.8 µM | A498 29.6 µM | A549 58.1 µM | EKVX 27.8 µM | HL-60 27 µM | HOP-92 16.6 µM | Hs-578T 25.9 µM | M14 34.6 µM | Malme-3M 28.2 µM | NCI/ADR-RES 44.7 µM | SF-268 22.3 µM | SF-295 29 µM | SF-539 19.6 µM | SK-MEL-5 > 10 µM | SNB-75 65.3 µM | SR 23.2 µM | U-251 14.3 µM | UO-31 19.3 µM

COc1ccc(/C=C2\N=C(c3ccccc3)N(C3Nc4cc5c(cc4S3)NC(N3C(=O)/C(=C/c4ccc(OC)cc4)N=C3c3ccccc3)S5)C2=O)cc1 (stereo not drawn)
inactive: 786-0 28.1 µM | A498 40.4 µM | A549 36.8 µM | EKVX 16.7 µM | HL-60 33.2 µM | HOP-92 > 100 µM | Hs-578T 48.5 µM | M14 > 100 µM | NCI/ADR-RES 19.2 µM | OVCAR-4 38.3 µM | SF-268 29.6 µM | SF-295 > 100 µM | SF-539 11.6 µM | SK-MEL-5 37.2 µM | SNB-75 22.5 µM | SR 9.68 µM | U-251 22.9 µM | UO-31 > 100 µM
38.5 µM: HCT-15

COC(=O)C1CCC(=S)N1C(=O)OCc1ccccc1 (stereo not drawn)
92.7 µM: HCT-15
inactive: 786-0 > 100 µM | A498 > 100 µM | A549 71 µM | EKVX 49 µM | HOP-92 > 100 µM | Hs-578T 49.4 µM | M14 > 100 µM | Malme-3M > 100 µM | NCI/ADR-RES > 100 µM | OVCAR-4 > 100 µM | SF-268 98.6 µM | SF-295 78 µM | SK-MEL-5 > 100 µM | SNB-75 > 100 µM | SR > 100 µM | U-251 81.8 µM | UO-31 95.7 µM

COc1cc2c(cc1OC)[C@@H]1[C@H](C#N)C(=O)C(C)(C)N1CC2
inactive: 786-0 > 100 µM | A498 > 100 µM | A549 > 100 µM | EKVX > 100 µM | HL-60 23.6 µM | HOP-92 > 100 µM | Hs-578T > 100 µM | M14 > 100 µM | Malme-3M > 100 µM | NCI/ADR-RES > 100 µM | OVCAR-4 > 100 µM | SF-295 > 100 µM | SK-MEL-5 > 100 µM | SR > 100 µM | U-251 > 100 µM | UO-31 > 100 µM
> 100 µM: HCT-15

C/C(=N\Nc1nc2ccccc2s1)c1cccc[n+]1[O-]
34.2 µM: HCT-15
active: Malme-3M 1.09 µM | SF-295 0.594 µM
inactive: 786-0 47.1 µM | A498 > 100 µM | A549 42.8 µM | EKVX 2.33 µM | HOP-92 13.5 µM | Hs-578T > 100 µM | M14 32.2 µM | NCI/ADR-RES 29.7 µM | OVCAR-4 86.3 µM | SF-268 36.2 µM | SF-539 45.1 µM | SK-MEL-5 32.8 µM | SR 23.9 µM | U-251 47 µM | UO-31 20 µM
